Measured values as given in patent US11613552B2, “Pharmaceutical agents, compositions, and methods relating thereto” (Alltech, Inc., priority 2017, dated 2023).

Assays:
[1] = system: HepG2 cells; assay: Glucose production assay in HepG2 cells; format: cell-based, human
Protocol: (§1) Equal numbers of Human HepG2 or rat H4IIE cells (1-1.5×10^5 cells/well) were seeded on 96 well plates in 10% FBS-containing media for 24 hr. Cells were then washed twice with PBS, and treated with various concentrations of compounds, metformin or insulin in 100 μl of glucose production media (glucose-free, phenol red-free DMEM media supplemented with 20 mM sodium lactate, 2 mM sodium pyruvate and 5 mM HEPES) at 37° C. for 24 hr (H4IIE cells only) or 48 hr (HepG2 cell only). Cells were also incubated with 0.24% DMSO (the maximal volume of DMSO solvent used in the experiments).
(§2) After the above treatments, 50 μl of culture media were collected, and subjected to glucose analysis using Molecular Probes Amplex Red glucose assay kit (Cat #A22189) according to the manufacturer's protocol. Cell numbers or viability in the culture plate after the above compound treatments were determined using Promega's CellTiter96® AQueous One Solution Cell Proliferation Assay kits, according to the manufacturer's protocol and instructions. In brief, after removing 50 μl of culture media for glucose assay, cells were incubated with AQueous One solution (25 μl stock solution and 50 μl prewarmed PBS/per well) at 37° C. for 1 hour, and the absorbance of OD490 nm in each sample was determined by the Bio-Tek microplate reader. Cell viability in culture wells were determined by the subtraction of OD490 nm in cultured cells with the OD490 nm in plain culture media (without seeding of cells). Glucose production in the culture cells were obtained by normalizing the glucose concentration in culture media by cell viability in each well. At least 3 samples per each treatment were examined for the above analysis. Data are presented as Mean±SEM of those samples. Experiments were repeated at least twice.
(§3) The half maximal inhibitory concentration (IC50 values) of Compound #43 or metformin for the inhibition of glucose production were determined using the ED50 Plus v1.0 online software.

[2] = molecular target: T1, native insulin receptor (Insr) (Rattus norvegicus, UniProt P15127); assay: In vitro cell-free phosphorylation of native insulin receptor; format: biochemical; conditions: 3.8 μM, cell-free (FIG. 27)
T1 construct: native insulin receptor proteins, containing both alpha and beta subunits; purchased Sigma I9266; host or cells: purified from rat liver tissue
Protocol: In vitro phosphorylation of Insr was performed according to Sigma's protocol with the following modifications. In brief, 10 μl of native insulin receptor solution containing 0.8 μl of original native INSR stock solution (Sigma, Catalog #I9266; diluted in enzyme dilution buffer containing 50 mM HEPES, pH 7.6, 150 mM NaCl and 0.1% Triton X-100) were incubated with equal volume of solutions containing insulin (Sigma), DMSO (Compound #43 solvent), Compound #43 or Compound #68 (diluted in 50 mM HEPES, pH 7.6 and 100 μg/ml bovine serum albumin) on ice for 30 min. Then 20 μl of 2× kinase buffer containing 0.2 mM ATP, 50 mM HEPES, pH 7.6, 50 mM MgCl2 and 4 mM MnCl2 were added to the above reactions, mixed and incubated on ice for 45 minutes.
Five microliters of the above reactions were immediately subjected to Western blot analysis using specific antibodies against phosphorylated tyrosine residues at 1146, 1150 and 1151 of Insrβ proteins (Cell Signaling Inc.). Protein band density was determined using the NIH Image J software.

[3] = system: Lepr^db/db mice; assay: Chronic treatment: fasting blood glucose and HbA1c in Lepr^db/db mice; format: in vivo, mouse; conditions: for effect on HbA1c levels: 25 μg selenium/kg ip daily for 90 days from 41 days of age (FIG. 5)
Protocol: (§4) Male Lepr^db/db mice at 38 days of age were intraperitoneally (ip) injected daily with physiological saline ([…]) containing 0.2% DMSO, Compound #C, Compound #50, Compound #68, and/or Compound #43 (25 μg selenium or sulfur equivalents of each compound per kilogram body weight, diluted in sterile physiological saline) for periods ranging from 43-90 days. Body weights of the above treated mice were recorded daily using a balance and any visible abnormal animal gross morphology and walking behavior were monitored daily. After the treatments, animals were fasted overnight and then subjected to blood glucose or HbA1c assays, glucose tolerance tests or tissue collections.
(§5) For comparative studies of any potential anti-diabetic effects of Compounds #43, #69 and #70, male Lepr^db/db mice at 41 days of age were intraperitoneally (ip) injected daily with physiological saline ([…]) containing 0.2% DMSO, Compound #43, Compound #69, or Compound #70 (25 μg selenium of each compound per kilogram body weight, diluted in sterile physiological saline). After the treatments for 43 days, animals were fasted overnight and then subjected to blood glucose and glucose tolerance tests. After daily treatments of these compounds for 90 days, sera from these animals were collected and then subjected to blood HbA1c assays.
After treatment with physiological saline or compounds or after the injection of a bolus of glucose, a small drop of blood from each mouse was collected by snipping the mouse tail tip. Blood glucose levels were determined using a Glucometer with a maximum capability for glucose measurement of 600 mg/dL.
After saline or compound treatments, a small drop of blood from the mouse tail was collected in an EDTA-coated eppendorf tube (to prevent blood coagulation) (Fisher Scientific), and then subjected to a HbA1c assay using the Crystal Chem's or Kamiya's mouse glycated hemoglobin A1c ELISA kit, according to the manufacturer's protocol. Also after the final treatments, mouse serum was collected and subjected to HbA1c assay using the Kamiya Biomeidcal Company's mouse HbA1c kit, according to the manufacturer's protocol.

[4] = system: Lepr^db/db mice; assay: Glucose tolerance test in Lepr^db/db mice; format: in vivo, mouse
Protocol: as §4, §5
Glucose tolerance tests were performed as described previously (Li et al, Int J Biol Sci 2008; 4:29-36). Briefly, overnight-fasted Lepr^db/db mice after saline or compound treatments were injected intraperitoneally with 2 grams/kg body weight of 20% D-glucose. Blood glucose levels at time 0 (immediately before the injection of glucose), 0.25, 0.5, 1 and 2 hours after injection of glucose were determined using a glucometer with a maximum glucose measurement capacity of 600 mg/dL. Because of this, blood glucose levels over 600 mg/dL were counted as 600 mg/dL in the data analysis.

[5] = Body weight, gross morphology and walking behavior of treated Lepr^db/db mice; format: in vivo
Protocol: Body weights of the above treated mice were recorded daily using a balance and any visible abnormal animal gross morphology and walking behavior were monitored daily. After the treatments, animals were fasted overnight and then subjected to blood glucose or HbA1c assays, glucose tolerance tests or tissue collections.
After the treatments for 43 days, animals were fasted overnight and then subjected to blood glucose and glucose tolerance tests. After daily treatments of these compounds for 90 days, sera from these animals were collected and then subjected to blood HbA1c assays.

[6] = system: HepG2 cells; assay: Cell viability (CellTiter96 AQueous One) in HepG2 cells; format: cell-based, human; conditions: higher doses 0.5-4 mM
Protocol: as §2

[7] = system: H4IIE cells; assay: Glucose production assay in H4IIE cells; format: cell-based, rat
Protocol: as §1, §2, §3

[8] = system: H4IIE cells; assay: Cell viability (CellTiter96 AQueous One) in H4IIE cells; format: cell-based, rat; conditions: tested doses
Protocol: as §2

[9] = tested doses, serum-free glucose production media, 48 hr (FIG. 1)
[10] = 25 μg selenium/kg ip daily for 43 days from 41 days of age (FIG. 5)
[11] = 25 μg selenium/kg ip daily, 90 days, from 41 days of age

T1 sequence (P15127 764-1383 limits assumed): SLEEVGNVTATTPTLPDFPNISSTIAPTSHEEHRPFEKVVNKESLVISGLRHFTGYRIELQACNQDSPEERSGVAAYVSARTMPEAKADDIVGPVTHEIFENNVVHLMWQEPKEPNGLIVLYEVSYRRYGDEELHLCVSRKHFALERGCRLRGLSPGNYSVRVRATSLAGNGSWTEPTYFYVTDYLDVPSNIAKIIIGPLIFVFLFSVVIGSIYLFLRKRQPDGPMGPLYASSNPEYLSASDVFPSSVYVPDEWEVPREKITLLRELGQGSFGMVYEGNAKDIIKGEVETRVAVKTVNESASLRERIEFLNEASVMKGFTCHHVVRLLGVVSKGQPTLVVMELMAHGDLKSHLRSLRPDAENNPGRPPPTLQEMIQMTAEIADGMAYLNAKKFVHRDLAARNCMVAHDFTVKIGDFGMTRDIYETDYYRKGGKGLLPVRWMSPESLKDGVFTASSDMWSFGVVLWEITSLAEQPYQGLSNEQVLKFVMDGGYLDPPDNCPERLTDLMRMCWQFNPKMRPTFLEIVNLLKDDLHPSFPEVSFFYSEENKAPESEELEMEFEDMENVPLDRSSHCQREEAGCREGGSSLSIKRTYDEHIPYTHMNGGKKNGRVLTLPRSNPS
T1 sequence (P15127 27-759 partner limits assumed): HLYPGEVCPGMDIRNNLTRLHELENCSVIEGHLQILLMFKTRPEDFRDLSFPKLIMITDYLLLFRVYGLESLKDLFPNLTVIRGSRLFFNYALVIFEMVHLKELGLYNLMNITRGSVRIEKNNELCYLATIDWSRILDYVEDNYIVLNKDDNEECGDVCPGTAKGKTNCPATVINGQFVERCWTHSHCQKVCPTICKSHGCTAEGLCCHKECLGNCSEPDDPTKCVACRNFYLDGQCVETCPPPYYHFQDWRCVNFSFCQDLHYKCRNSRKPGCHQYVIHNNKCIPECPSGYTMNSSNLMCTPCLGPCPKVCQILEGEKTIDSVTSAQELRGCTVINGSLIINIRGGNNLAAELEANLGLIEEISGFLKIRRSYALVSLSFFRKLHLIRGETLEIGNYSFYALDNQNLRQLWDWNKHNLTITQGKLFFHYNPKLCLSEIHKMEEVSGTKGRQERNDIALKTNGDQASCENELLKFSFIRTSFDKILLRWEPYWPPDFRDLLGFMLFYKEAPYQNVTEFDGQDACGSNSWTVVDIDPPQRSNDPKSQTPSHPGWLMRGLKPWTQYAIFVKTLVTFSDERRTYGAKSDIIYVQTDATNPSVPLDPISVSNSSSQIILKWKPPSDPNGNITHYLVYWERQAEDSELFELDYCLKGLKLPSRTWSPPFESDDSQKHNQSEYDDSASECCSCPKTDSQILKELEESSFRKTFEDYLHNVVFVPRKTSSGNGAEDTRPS

For `Nc1ncnc2c1ncn2[C@@H]1O[C@H](CO)[C@@H](O)[C@H]1O` [Compound #57, Adenosine, reference compound], the “effect on glucose production in HepG2 cells” value (“effect … in HepG2 cells” for short) [1, 9] was “did not inhibit glucose production”.
With `C[C@H]1O[C@@H](n2cnc3c(N)ncnc32)C[C@@H]1O` [Compound #59, 2′,5′-Dideoxyadenosine, reference compound] the “effect … in HepG2 cells” value [1, 9] was “did not inhibit glucose production”.
With `Nc1ncnc2c1ncn2C1CCCO1` (stereo not drawn) [Compound #61, 9-(tetrahydrofuran-2-yl)-9h-purin-6-amine (SQ 22,536), reference compound] the “effect … in HepG2 cells” value [1, 9] was “did not inhibit glucose production”.
In the case of `Nc1ncnc2[nH]cnc12` [Compound #62, Adenine, reference compound], the “effect … in HepG2 cells” value [1, 9] is reported as “did not inhibit glucose production”.
In the case of `C[S+](CC[C@H](N)C(=O)O)C[C@H]1O[C@@H](n2cnc3c(N)ncnc32)C(O)C1O.[I-]` (stereo partly drawn) [Compound #64, S-(5′-Adenosyl)-L-methionine iodide (SAM), reference compound], the “effect … in HepG2 cells” value [1, 9] is reported as “minimal effects in lowering glucose production”.
For `CSC[C@H]1O[C@@H](n2cnc3c(N)ncnc32)[C@H](OC(C)=O)[C@@H]1OC(C)=O` [Compound #68, Adenosine, 5′-S-methyl-5′-thio-, 2′,3′-diacetate], the “activation of Insr” value [2] was “less effective at the tested dose than Compound #43”, the “effect on fasting blood glucose levels” value ([3]; 25 μg selenium or sulfur/kg ip daily, 3 months (FIG. 4)) was “did not significantly lower blood glucose levels” and the “effect on blood HbA1c levels” value ([3]; 25 μg sulfur/kg ip daily, 3 months (FIG. 4)) was “did not affect blood HbA1c levels”. For the same compound, the “glucose tolerance (overall)” value ([4]; 25 μg selenium or sulfur/kg ip daily 2 months (FIG. 8B)) was “little or no effects to improve glucose tolerance”, the “blood glucose level at 2 hr after glucose injection” value (“blood glucose level at 2 hr” for short) ([4]; FIG. 8B, 2 months treatment) was “no obvious decrease of blood glucose levels” and the “overt toxic effects (morphology, walking behavior, body weight)” value ([5]; 25 μg selenium or sulfur/kg ip daily, 3 months) was “no overt toxic effects”. For the same compound, the “effect … in HepG2 cells” value [1, 9] was “minimal effects in lowering glucose production”.
In the case of `CCCC(=O)OC1C(OC(=O)CCC)[C@@H](C[Se]C)O[C@H]1n1cnc2c(N)ncnc21` (stereo partly drawn) [Compound #70, Adenosine, 5′-Se-methyl-5′-selino-, 2′,3′-dibutanoate], the “effect on fasting blood glucose levels” value [3, 10] is reported as “decrease of fasting blood glucose levels in Lepr^db/db mice but less significant than Compound #43”, the “decrease of HbA1c levels (initial assessments)” value ([3]; 25 μg selenium/kg ip daily for 90 days (FIG. 5), later revised) is reported as “about 50%” and the “effect on HbA1c levels” value [3] is reported as “neither Compound #69 nor Compound #70 had any significant effect”. For the same compound, the “blood glucose level at 2 hr” value ([4]; FIG. 8C, 43 days treatment) was “slight but non-significant decrease in blood glucose levels”, the “overt toxic effects (morphology, walking behavior, body weight)” value [5, 11] was “no overt toxic effects” and the “effect … in HepG2 cells” value [1, 9] was “inhibited glucose production”.
With `CN(C)C(=N)N=C(N)N` [metformin, reference compound] the cell toxicity [6] was “showed cell toxicity”, the “inhibitory activity on glucose production in H4IIE cells” value ([7]; 36.25 μM) was “little or no inhibitory activity” and the IC50 ([7]; Rattus norvegicus, H4IIE, serum-free, 24 hr, read-out: IC50 (inhibition of glucose production)) was 275 µM. For the same compound, the “effect on glucose production in H4IIE cells” value ([7]; serum-free, 24 hr (FIG. 2)) was “dose-dependent decrease in glucose production”, the “effect … in HepG2 cells” value ([1]; 500 μM) was “did not inhibit glucose production” and the “toxic effect on cell viability” value [8] was “No toxic effect”.
With “Adenosine, 5′-Se-methyl-5′-selino-, 2′,3′-dipropionate [Compound #69]” the “effect on fasting blood glucose levels” value [3, 10] was “slight increase in fasting blood glucose levels”, the “effect on HbA1c levels” value [3] was “did not result in a significant decrease of HbA1c levels” and the “blood glucose level at 2 hr” value ([4]; FIG. 8C, 43 days treatment) was “slight but non-significant decrease in glucose levels”. The “overt toxic effects (morphology, walking behavior, body weight)” value [5, 11] was “no overt toxic effects” and the “effect … in HepG2 cells” value [1, 9] was “inhibited glucose production”.
In the case of “Adenosine, F—Se-methyl-F-seleno-, 2′-morpholinocarbamate and Adenosine, 5′-Se-methyl-F-seleno-, 3′-morpholinocarbamate [Compound #53]”, the “effect … in HepG2 cells” value [1, 9] is reported as “inhibited glucose production”.
